Data set [1] has as its system HCT-116 (human colorectal carcinoma) cells. The experiment in a line: MTT cytotoxicity assay, HCT-116. Type of data set: cell-based. To be noted: for IC50: 24 h treatment, read-out: IC50 (nM ± SD) HCT-116; for Influence on cell growth / viability, HCT-116: 24 h, 0.01–1 µM range. The method, then:
(§1) HTC116 (human colorectal carcinoma), HepG2 (human hepatocellular carcinoma), MCF-7 (human breast cancer), 16-HBE (human bronchial epithelium) and Caco-2 (human colorectal carcinoma) cell lines were purchased from American Type Culture Collection, Rockville, MD, USA. All cell lines were grown in RPMI medium supplemented with L-glutamine (2 mM), 10% fetal bovine serum (FBS), penicillin (100 U/mL), streptomycin (100 µg/mL) and gentamicin (5 μg/mL). Cells were maintained in log phase by seeding twice a week at a density of 3 × 10^8 cells/L in humidified 5% CO2 atmosphere, at 37 °C. In all experiments, after plating, cells were allowed to adhere overnight and then treated with the compounds or vehicle alone (control cells), whereas Caco-2 cells were treated 15 days after confluence, at which time the cells are differentiated in normal intestinal-like cells. No differences were found between cells treated with DMSO 0.1% and untreated cells in terms of cell number and viability.
(§2) Cytotoxic activity of the organotin compounds against human tumor cell lines (HCT-116, HepG2 and MCF-7) and human normal cells (16-HBE and intestinal-like differentiated Caco2 cells) was determined using the MTT colorimetric assay based on the reduction of 3-(4,5-dimethyl-2-thiazolyl)bromide-2,5-diphenyl-2H-tetrazolium (MTT) to purple formazan using mitochondrial dehydrogenases of living cells, as reported. This method is commonly used to illustrate inhibition of cellular proliferation. Monolayer cultures were treated for 24 h with various concentrations (0.01-1 µM) of the drugs. Cisplatin was used for comparison. Briefly, all cell lines were seeded at 1.0 × 10^4 cells/well in 96-well plates containing 200 μL RPMI. When appropriated, cells were washed with fresh medium and incubated with the compounds in RPMI. After incubation, cells were washed, and 50 μL FBS-free medium containing 5 mg/mL MTT was added. The medium was discarded after a 2 h incubation at 37 °C by centrifugation, and formazan blue formed in the cells was dissolved in DMSO. The absorbance, measured at 570 nm in a microplate reader (Bio-RAD, Hercules, CA, USA) of MTT formazan of control cells was taken as 100% of viability. The growth inhibition activity of compounds was estimated by comparison with the not-treated control. The values for the inhibitory concentration for 50% of the tested compounds (IC50) were calculated using a sigmoidal model using GraphPad Prism 5.02 from GraphPad Software (San Diego, CA, USA). Each experiment was repeated three times in triplicate to obtain the mean values.
Background: Formazan colour is commonly taken as a measure of viable cells.

Data set [2] concerns HepG2 (human hepatocellular cancer) cells. The experiment in a line: MTT cytotoxicity assay, HepG2. Type of data set: cell-based. The conditions noted are these: for IC50: 24 h treatment, read-out: IC50 (nM ± SD) HepG2; for Influence on cell growth / viability, HepG2: 24 h, 0.01–1 µM range. The method, then:
as §1, §2

Data set [3] deals with MCF-7 (human breast cancer) cells. Briefly: MTT cytotoxicity assay, MCF-7. In kind it is cell-based. The conditions noted are these: for IC50: 24 h treatment, read-out: IC50 (nM ± SD) MCF-7; for Influence on cell growth / viability, MCF-7: 24 h, 0.01–1 µM range. The method, then: as §1, §2
In data set [4] the test system is intestinal normal-like differentiated Caco-2 cells. Briefly: MTT viability assay, normal-like differentiated Caco-2 cells. In kind it is cell-based, human. To be noted: 24 h; for Effect on cell survival, normal-like differentiated Caco-2 cells: MTT, reduction seen in the 1–10 μM range; for CC50: differentiated Caco-2, MTT, concentration lethal to 50% of the normal cells, read-out: Normal-Like Intestinal Cells LC50. How it is done:
as §1
as §2, with “Monolayer cultures were treated for 24 h with various concentrations (0.01-1 µM) of the drugs.” left out
(§3) Formazan of control cells was taken as 100% viability and the 50% lethal concentrations of the synthesized complexes (LC50) were determined by plotting the graph of cell viability versus the concentrations. The selectivity index (SI) values were calculated for each compound by dividing the LC50 of normal differentiated Caco2 or 16-HBE cells by the IC50 of HCT-116 tumor cells. Each experiment was repeated three times in triplicate.

In data set [5] the test system is human bronchial epithelial cells (16-HBE). Briefly: MTT viability assay, 16-HBE cells. To be noted: 24 h; for Effect on cell survival, 16-HBE cells: reduction seen in the 1–10 μM range; for CC50: concentration lethal to 50% of the normal cells, read-out: 16-HBE Cells LC50. In kind it is cell-based. The method, then: as §1
as §2, with “Monolayer cultures were treated for 24 h with various concentrations (0.01-1 µM) of the drugs.” left out
as §3

Data set [6] relates to HCT-116 cells. Briefly: Mitochondrial transmembrane potential, DiOC6 flow cytometry. Type of data set: cell-based, human. To be noted: 24 h, control 3.2%. The method, then:
Mitochondrial transmembrane potentials (Δψm) were assessed using flow cytofluorometry, with the cationic lipophilic dye 3,3′-dihexyloxacarbocyanine iodide(3) (DiOC6) (Molecular Probes, Inc., Life Technologies Italia, Monza, Italy), which accumulates in the mitochondrial matrix. Changes in mitochondrial membrane potential are indicated by a reduction in the DiOC6-induced fluorescence intensity. After 24 h treatment, cells were incubated with DiOC6 at a 40 nmol/L final concentration, for 15 min at 37 °C. After centrifugation, cells were washed with phosphate buffer saline (PBS) and suspended in 500 μL PBS. Then, samples of 1.0 × 10^4 cells were subjected to FACS analysis.

In data set [7] the test system is HCT-116 cells. The experiment in a line: Intracellular ROS, DCFH-DA flow cytometry. Type of data set: cell-based, human. To be noted: 24 h, control 1.9%. The method, then:
ROS level was monitored by measuring fluorescence changes that resulted from intracellular oxidation of 2′,7′-dichlorofluorescin diacetate (DCFH-DA). DCFH-DA, at 10 μM final concentration, was added to the cell medium 30 min before the end of the treatment. The cells were collected using centrifugation for 5 min at 2000 rpm at 4 °C, washed, suspended in PBS and immediately subjected to FACS analysis. At least 1 × 10^4 cells were analyzed for each sample.
In general terms: Flow cytometry measures light scatter and fluorescence of single cells or particles in a stream.

The test system of data set [8] is HCT-116 cells. The experiment in a line: Cell cycle analysis, propidium iodide flow cytometry. In kind it is cell-based, human. The conditions noted are these: HCT-116, 24 h of treatment. The method, then:
Cell cycle stage was analyzed using flow cytometry. Aliquots of 1.0 × 10^6 cells were harvested using centrifugation, washed with PBS and incubated in the dark in a PBS solution containing Triton X100 (0.1%, v/v), 20 μg/mL propidium iodide (PI) and 200 µg/mL RNase, for 30 min, at room temperature. Then, samples were immediately subjected to FACS analysis. At least 1 × 10^4 events were analyzed for each sample.

For the next data set, the system named is p53. The experiment in a line: Western blot, p53 level in HCT 116 cells. In kind it is cell-based, human. To be noted: 24 h, immunoblotting. The method, then: (§4) After treatment with the compound, protein extracts were prepared and equal amounts of protein samples (80 μg/lane), subjected to SDS-PAGE, were transferred to nitrocellulose membrane as previously reported. The immunoblot was incubated overnight at 4 °C with blocking solution (5% skim milk), followed by incubation with anti-p21 (F-5, Cat No SC-6246 Santa Cruz Biotechnology) or anti-p53 (DO-1, Cat No SC-126, Santa Cruz Biotechnology) for 1 h at room temperature. Blots were washed two times with Tween 20/Tris-buffered saline (TTBS) and incubated with a 1:2000 dilution of horseradish peroxidase (HRP)-conjugated anti-IgG antibody (Dako Denmark, Glostrup, Denmark) for 1 h at room temperature. Blots were again washed five times with TTBS and then developed using enhanced chemiluminescence (Amersham Life Science, Arlington Heights, IL, USA.). Immunoreactions were also performed using β-actin antibody as loading controls.
Background: A western blot detects proteins with antibodies after separation by electrophoresis.

Another data set relates to p21^WAF1. Briefly: Western blot, p21WAF1 level in HCT 116 cells. In kind it is cell-based, human. To be noted: 24 h, immunoblotting. How it is done:
as §4

Usually IC50 stands for the midpoint of a concentration-inhibition curve. For Ph3Sn(HtpO2) [Compound 6], the half-inhibitory concentration (IC50) in [1] amounted to 60 ± 5 nM; in [2] it was 63 ± 5 nM; in data set [3] it was 102 ± 9 nM. Moreover, in [4], the “Effect on cell survival, normal-like differentiated Caco-2 cells” value is “did not affect the cell viability at any assayed concentration”. Moreover, in data set [5], the “Effect on cell survival, 16-HBE cells” value is given as “did not affect the cell viability at any assayed concentration”. For the same compound, the “Cells with dissipated mitochondrial membrane potential” value with HCT-116 cells [6] (0.1 μM) turned out to be 25.1%. In addition, the “AY, ROS production (DCFH-DA fluorescent cells)” value (“AY, ROS production” for short) in the data set on HCT-116 cells [7] (0.1 μM) was determined as 25.3%. The “Effect on cell cycle distribution” value in the data set on HCT-116 cells [8] was “cell cycle arrest in phase G2/M”.

Turning to `Cc1cc([O][Sn]([CH3])([CH3])[CH3])n2ncnc2n1` [Compound 3, Me3Sn(mtpO)], in [1], the “Influence on cell growth / viability, HCT-116” value was “no influence on cell growth” and the half-inhibitory concentration (IC50) was more than 1000 nM. Moreover, in [2], the “Influence on cell growth / viability, HepG2” value is reported as “no influence on cell growth” and the concentration for half-maximal inhibition (IC50) is more than 1000 nM. In addition, in data set [3], the “Influence on cell growth / viability, MCF-7” value is “no influence on cell growth” and the half-maximal inhibitory concentration (IC50) was more than 1000 nM.

In the case of n-Bu3Sn(HtpO2) [Compound 5], the 50% inhibitory concentration (IC50) in [1] was determined as 101 ± 11 nM; in data set [2], 117 ± 10 nM; in data set [3], 487 ± 47 nM. Moreover, the “Effect on cell survival, normal-like differentiated Caco-2 cells” value in data set [4] was “reduction of the cell survival”. In addition, the figures for the CC50 in [4] and in [5] were 12 ± 1 µM and 22 ± 1 µM, respectively. The “Effect on cell survival, 16-HBE cells” value in [5] is “reduction of the cell survival”. In the data set on HCT-116 cells [6] (0.1 μM), the “Cells with dissipated mitochondrial membrane potential” value was 18.3%. In the data set on HCT-116 cells [7] (0.1 μM), the “AY, ROS production” value was 20.2%. For the same compound, the “Effect on cell cycle distribution” value with HCT-116 cells [8] is on record as “block of cell duplication in the G0/G1 phase”. Also, the “Effect on level of p53” value with p53 was “did not vary”. For the same compound, in the data set with p21^WAF1, the “Effect on level of p21” value is “did not vary”.

For the compound `[CH3][Sn]([CH3])([CH3])[O]c1ccn2ncnc2n1` [Compound 1, Me3Sn(5tpO)], in [1], the “Influence on cell growth / viability, HCT-116” value is given as “no influence on cell growth” and the IC50 is more than 1000 nM. Besides, in data set [2], the “Influence on cell growth / viability, HepG2” value was “no influence on cell growth” and the 50% inhibitory concentration (IC50) was more than 1000 nM. Besides, in [3], the “Influence on cell growth / viability, MCF-7” value is given as “no influence on cell growth” and the concentration for half-maximal inhibition (IC50) is more than 1000 nM.

With `CCC[CH2][Sn]([CH2]CCC)([CH2]CCC)[O]c1cc(C)nc2ncnn12` [Compound 4, n-Bu3Sn(mtpO)], the half-maximal inhibitory concentration (IC50) in data set [1] was determined as 34 ± 3 nM; in data set [2], 53 ± 6 nM; in data set [3], 118 ± 10 nM. For the same compound, the “Effect on cell survival, normal-like differentiated Caco-2 cells” value in [4] was “reduction of the cell survival”. In addition, the CC50 came out at 5 ± 0.4 µM in [4] and 11 ± 1 µM in data set [5]. The “Effect on cell survival, 16-HBE cells” value in data set [5] is reported as “reduction of the cell survival”. The “Cells with dissipated mitochondrial membrane potential” value in the data set on HCT-116 cells [6] (0.1 μM) was determined as 28.5%. Further, the “AY, ROS production” value in the data set with HCT-116 cells [7] (0.1 μM) was determined as 27.3%. The “Effect on cell cycle distribution” value in the data set with HCT-116 cells [8] is “block of cell duplication in the G0/G1 phase”. Further, the “Effect on level of p53” value in the data set with p53 is “did not vary”. The “Effect on level of p21” value in the data set with p21^WAF1 is given as “did not vary”.

On to `CCC[CH2][Sn]([CH2]CCC)([CH2]CCC)[O]c1ccn2ncnc2n1` [Compound 2, n-Bu3Sn(5tpO)], for which the values for the half-inhibitory concentration (IC50) in data set [1], in data set [2] and in data set [3] were 70 ± 8 nM, 70 ± 6 nM and 233 ± 21 nM, respectively. The “Effect on cell survival, normal-like differentiated Caco-2 cells” value in [4] is on record as “reduction of the cell survival”. Also, the CC50 was determined as 6 ± 0.4 µM in [4] and 17 ± 1 µM in [5]. The “Effect on cell survival, 16-HBE cells” value in data set [5] is on record as “reduction of the cell survival”. The “Cells with dissipated mitochondrial membrane potential” value in the data set on HCT-116 cells [6] (0.1 μM) is 23.5%. Moreover, the “AY, ROS production” value in the data set with HCT-116 cells [7] (0.1 μM) stood at 22.5%. In addition, the “Effect on cell cycle distribution” value in the data set with HCT-116 cells [8] is “block of cell duplication in the G0/G1 phase”. Moreover, the “Effect on level of p53” value in the data set on p53 is reported as “did not vary”. Besides, the “Effect on level of p21” value in the data set on p21^WAF1 was “did not vary”.

As to `N.N.[Cl][Pt][Cl]` [Cisplatin, reference compound], the concentration for half-maximal inhibition (IC50) in data set [1] amounted to 46000 nM; in data set [2] it was 65000 nM; in [3] it was 10000 nM. Also, the “Cells with dissipated mitochondrial membrane potential” value in the data set on HCT-116 cells [6] (20 μM) came to 17.4%. Further, the “AY, ROS production” value in the data set on HCT-116 cells [7] (20 μM) is listed as 23.5%.

The values above are taken from article PMC7070731, “Cytotoxic Activity of Organotin(IV) Derivatives with Triazolopyrimidine Containing Exocyclic Oxygen Atoms” (Molecules, 2020).
